Measurements from patent US12508262B2, “Methods of using ALK2 inhibitors” (Keros Therapeutics, Inc., priority 2020, dated 2025).

Columns and labels:
[1] = tested on: mouse model of IRIDA; assay: TMPRSS6 siRNA mouse model of IRIDA; format: in vivo, C57BL/6 mice
Experimental: To establish a murine model of IRIDA, eight-week-old male C57BL/6 mice were dosed intravenously with lipid encapsulated siRNA targeted against either Luciferase (control) or TMPRSS6 (0.75 mg/kg). Following confirmation of disease at day 8 post initial siRNA administration, once-daily oral dosing with the compound of Formula I-42 (5 mg/kg) or vehicle commenced. A second siRNA administration was given on day 10. Studies were terminated 18 days post initial siRNA administration. Hematological parameters, serum iron, and serum hepcidin were measured at the end of the study.

[2] = tested on: mouse model of chronic kidney disease (CKD); assay: Adenine-induced mouse model of chronic kidney disease; format: in vivo, C57Bl/6 mice
Experimental: To induce chronic kidney disease (CKD), 6-week-old C57Bl/6 mice were dosed daily via PO administration with 50 mg/kg of adenine or vehicle. After six weeks of adenine administration, a representative group of mice were taken down and tested to confirm anemia. Concomitantly, the remainder of the CKD mice began dosing with either vehicle or the compound of Formula I-42 5 mg/kg PO daily. Mice were dosed with vehicle or the compound of Formula I-42 while still receiving daily adenine for 10 days. The study was terminated at 52 days and hematology (Heska, Element HT-5), serum hepcidin (Intrinsic Biosciences, Hepcidin Murine Compete), and serum iron (Bioassay Systems, QuantiChrom Kit) levels were assessed.

[3] = tested on: healthy volunteers; assay: Phase 1 single- and multiple-ascending dose study, pharmacodynamic endpoints (serum iron, transferrin saturation, ferritin, hepcidin, reticulocyte hemoglobin, cholesterol); format: in vivo, human; details: for transferrin saturation, mean percent change from baseline / serum iron, mean change from baseline: Day 4, multiple ascending doses; for transferrin saturation, mean percent change from baseline: placebo 0.3%; for serum iron, mean change from baseline: placebo 1.4
Description: (§1) The primary objectives of this study were to a) evaluate safety and tolerability of escalating doses of the compound of Formula I-11 administered as single and multiple oral doses in healthy male volunteers and healthy postmenopausal female volunteers and b) evaluate the PK parameters following escalating doses of the compound of Formula I-11 administered as single and multiple oral doses. The secondary objective of this study was to evaluate the pharmacodynamic (PD) parameters following escalating doses of the compound of Formula I-11 administered as single and multiple oral doses. This study was conducted in two parts.
(§2) Participants in Part 1 received a single oral dose of the compound of Formula I-11 or placebo on Day 1 and serial PK samples were collected. Baseline assessments were performed on day −1 prior to dosing. Samples were collected for determination of pharmacodynamic parameters at pre-dose daily and up to 24 hours post dose (day 2) after a single oral dose of the compound of Formula I-11. Participants remained at the study site for observation for 24 hours post-dose through the PK sample collection on Day 2. Participants returned to the site for the 48, 72, and 120-hour post-dose sample collection on Days 3, 4, and 6. Safety was evaluated by a Safety Review Committee prior to escalation to the next dose level cohort.
(§3) Participants in Part 2, Cohorts 1 through 3, received a daily oral dose of the compound of Formula I-11 (50, 100, or 200 mg liquid formulation respectively) or placebo for 7 days. A daily oral dose of the compound of Formula I-11 or placebo in participants in Part 2, Cohort 4 (350 mg liquid formulation) was planned for 14 days but was discontinued early in all subjects, either by the Investigator because of AEs, or by the Sponsor. A decision was made by the Sponsor to discontinue dosing of the entire cohort based on the frequency of AEs and laboratory abnormalities after Day 9. In Cohort 4, participants on the compound of Formula I-11 received daily oral dosing of 350 mg for up to 7 days; one placebo participant received daily oral dosing for 9 days. Samples were collected for determination of pharmacodynamic parameters at pre-dose daily and to 24 hours post dose (day 8) while on drug. Daily trough PK samples were collected for the determination of steady-state from Day 2 to Day 12 or 13. Participants returned to the site on Day 30 for an end-of-study visit. Safety was evaluated by a Safety Review Committee prior to escalation to the next dose level cohort.
Part 2, MAD Cohort 5 (C5) participants received either the compound of Formula I-11, 100 mg (n=8) or placebo (n=2) on Days 1, 2, 3, 4, 5, 6, 7. The last dose was administered on the morning of Day 7. Serial PK sample collection for the determination of steady-state concentrations of the compound of Formula I-11 was done at pre-dose and up to 24 hours post-dose, beginning on Day 1, 4 and 7. Participants returned for follow-up visits on […], and Day 30 for an end-of-study visit.
Pharmacodynamic endpoints: Protocol-specified endpoints were assessed at baseline and regularly throughout the study period. These assessments included measurements of serum iron, transferrin saturation (calculated as serum iron/total iron-binding capacity), serum ferritin, serum hepcidin, and reticulocyte hemoglobin content, serum cholesterol, LDL, and HDL cholesterol. Measurements of all pharmacodynamic end points were made using standard clinical laboratory tests. Hepcidin analysis was performed using an ELISA kit from Intrinsic LifeSciences (Intrinsic Hepcidin IDx™ ELISA kit).

[4] = Phase 1 single- and multiple-ascending dose study, PK parameters; format: in vivo, human
Description: as §1
as §2, with “Participants remained at the study site for observation for 24 hours post-dose through the PK sample collection on Day 2. Participants returned to the site for the 48, 72, and 120-hour post-dose sample collection on Days 3, 4, and 6.” left out
Participants in Part 2, Cohorts 1 through 3, received a daily oral dose of the compound of Formula I-11 (50, 100, or 200 mg liquid formulation respectively) or placebo for 7 days. […] Safety was evaluated by a Safety Review Committee prior to escalation to the next dose level cohort. […]

[5] = tested on: healthy volunteers; assay: Phase 1 single- and multiple-ascending dose study, safety and tolerability; format: in vivo, human
Description: A total of 131 healthy, males aged 18 to 60 years and post-menopausal females aged 45 to 60 years, participated in this study.
as §1
Part 1 included 80 participants (10 cohorts of 8 participants each). Male and female participants who met the eligibility criteria were randomly assigned, in a ratio of 3:1 to receive the compound of Formula I-11 or matching placebo, N=6 and 2 per dose cohort, respectively. Participant enrollment included […] males and 12.5% females (postmenopausal). The IMP formulation used in Cohorts 1 through 6 was an oral capsule (doses of 1, 3, 10, 30, 100, or 300 mg capsule formulation). An oral liquid formulation was evaluated in Cohorts 7 through 10 (doses of 30, 100, 300 or 450 mg liquid formulation).
as §2
Part 2, Cohorts 1 through 4, included 41 participants (4 cohorts of 10 participants each and 1 additional placebo participant in Cohort 1). Male and female participants who met the eligibility criteria were randomly assigned at a ratio of 4:1 to receive either the compound of Formula I-11 oral liquid formulation or matching placebo, N=8 and 2 per dose cohort respectively. Forty (97.6%) males and 1 (2.4%) female (placebo) participant were enrolled.
as §3
Part 2, MAD Cohort 5 (C5) participants received either the compound of Formula I-11, 100 mg (n=8) or placebo (n=2) on Days 1, 2, 3, 4, 5, 6, 7. The last dose was administered on the morning of Day 7. […]

[6] = 5 mg/kg once-daily oral from day 8, study termination (day 18)
[7] = 5 mg/kg once-daily oral from day 8, study termination (day 18), with TMPRSS6 siRNA
[8] = 5 mg/kg PO daily for 10 days, Day 52
[9] = 5 mg/kg PO daily, after 10 days
[10] = fourth dose level (350 mg daily)
[11] = second dose level (100 mg daily)
[12] = third dose level (200 mg daily)

COc1cc2c(-c3cnn4cc(N5CC(N6CCN(C)CC6)C5)cnc34)ccnc2cc1F [Formula I-42]
disease phenotype ([1]; 5 mg/kg once-daily oral): rescued the disease phenotype | serum hepcidin vs vehicle-treated mice receiving TMPRSS6 siRNA [1, 6]: decreased serum hepcidin | serum iron vs vehicle-treated mice receiving TMPRSS6 siRNA [1, 6]: increased serum iron | hematocrit vs vehicle-treated mice [1, 7]: increase | hemoglobin levels vs vehicle-treated mice [1, 7]: increase | red blood cell counts vs vehicle-treated mice [1, 7]: increase | hematocrit, higher than vehicle-treated mice receiving adenine [2, 8]: 10.2% | hemoglobin, higher than vehicle-treated mice receiving adenine [2, 8]: 10.7% | red blood cell counts, higher than vehicle-treated mice receiving adenine [2, 8]: 7.1% | reticulocyte hemoglobin content, higher than vehicle-treated mice receiving adenine [2, 8]: 10.4% | increase in serum iron values vs vehicle treated mice receiving adenine [2, 9]: 108.2% | reduction in serum hepcidin values vs vehicle treated mice receiving adenine [2, 9]: 85.4%

COc1cc2c(-c3cnn4cc(N5CCC(N6CCN(C)CC6)CC5)cnc34)ccnc2cc1F [Formula I-11]
time to decrease in hepcidin ([3]; Cohort 5 (100 mg), after administration of the first dose, as early as): 4 h | transferrin saturation, mean percent change from baseline ([3]; first dose level (50 mg daily)): 1.6% | serum iron, mean change from baseline ([3]; first dose level (50 mg daily)): 1.48 μM/L | transferrin saturation, mean percent change from baseline [3, 10]: 30.1% | serum iron, mean change from baseline [3, 10]: 17.71 μM/L | transferrin saturation, mean percent change from baseline [3, 11]: 1.5% | serum iron, mean change from baseline [3, 11]: 0.59 μM/L | transferrin saturation, mean percent change from baseline [3, 12]: 7.5% | serum iron, mean change from baseline [3, 12]: 5.11 μM/L | serum ferritin ([3]; MAD cohort participants): decreases in serum ferritin | day of peak increase in reticulocyte hemoglobin content ([3]; MAD cohorts): 7 days | start of increase in reticulocyte hemoglobin content ([3]; MAD cohorts 1-4, day post-dosing): 4 days | effect on serum ferritin, single vs multiple doses ([3]; SAD and MAD cohorts): observed only after multiple doses | time to decrease in total cholesterol ([3]; SAD cohorts): ≤ 24 h | day of peak serum iron concentrations ([3]; multiple dose regimen, day of treatment): Day 3 or 4 | transferrin saturation, observed PD response ([3]; once-daily doses of 50 mg): not substantially different from placebo | serum hepcidin vs placebo ([3]; once-daily oral over 7 days, effect similar at 50 mg, 100 mg and 200 mg): robust decreases in baseline hepcidin | hemoglobin content of reticulocytes ([3]; repeated administration): increases over baseline in the hemoglobin content of reticulocytes | serum iron ([3]; single (SAD) or once-daily (MAD) oral administration): rapid, robust, and sustained dose-related increases in serum iron | transferrin saturation, observed PD response ([3]; single dose of 30 mg, liquid formulation): not substantially different from placebo | time of peak effect on serum iron ([3]; single dose, Day 2, post-dose): 24 h | transferrin saturation ([3]; single or repeated doses of 100 mg or above): sustained, dose-related increases in transferrin saturation | total cholesterol ([3]; single or repeated oral administration (Cohorts 1-4)): decreases in total cholesterol | half-life ([4]; both sexes, human, in vivo, oral, healthy participants, approximately): 10 to 15 h | Mean AUC and Cmax, dose proportionality ([4]; multiple doses from 50-200 mg): greater than dose-proportional increases | well tolerated dose level, repeated dose ([5]; after 7 daily oral doses, healthy participants): up to 200 mg | participants who discontinued the study due to AEs ([5]; human, in vivo): 25% | AEs reported in ≥2 subjects and higher than placebo ([5]; in vivo): headache, nausea, vomiting, diarrhea, gastroenteritis, chills, pyrexia, myalgia, decreased appetite, lymphopenia, neutropenia, abdominal discomfort, abdominal pain (upper), dizziness, fatigue, rhinorrhea, tonsillitis, and liver enzyme increases | AEs that led to study drug discontinuation in three or more participants ([5]; in vivo): lymphopenia and chills | onset of lymphopenia (% change in lymphocytes) ([5]; in vivo): 5 days | reversibility of lymphopenia / lymphocyte changes ([5]; in vivo): reversible | serious adverse events ([5]; in vivo): no serious adverse events | severity of the majority of AEs ([5]; in vivo): mild or moderate in severity | subjects who discontinued the study due to AEs ([5]; in vivo): none | subjects with increases in ALT >2×ULN ([5]; in vivo): 3 subjects | development of lymphopenia (lymphocyte counts <1.0×10^9 cells/L) ([5]; in vivo, po): ≥ 6 day | well tolerated dose level, single dose ([5]; single oral dose, healthy participants): up to 450 mg
